Test results taken from doi:10.1101/572578v1 (biorxiv, 2019).

Tests used:
Test in all cases: intrinsic fluorescence quenching titration
Type in all cases: binding
[1] = molecular target: COMMD1 (Homo sapiens, UniProt Q8N668, T174M)
[2] = molecular target: COMMD1 (Homo sapiens, UniProt Q8N668, K167E/K173E)
[3] = molecular target: COMMD1 (Homo sapiens, UniProt Q8N668)
Chain of COMMD1 (Homo sapiens, UniProt Q8N668) (Q8N668 whole entry): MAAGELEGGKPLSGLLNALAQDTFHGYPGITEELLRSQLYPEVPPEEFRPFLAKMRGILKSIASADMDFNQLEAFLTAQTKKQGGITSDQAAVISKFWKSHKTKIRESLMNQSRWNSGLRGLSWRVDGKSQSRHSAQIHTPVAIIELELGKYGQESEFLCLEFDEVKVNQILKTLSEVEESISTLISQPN

Chain of COMMD1 (Homo sapiens, UniProt Q8N668, K167E/K173E) (Q8N668 whole entry K167E/K173E): as the sequence (Q8N668 whole entry) above, with K167E, K173E counted along it
Chain of COMMD1 (Homo sapiens, UniProt Q8N668, T174M) (Q8N668 whole entry T174M): as the sequence (Q8N668 whole entry) above, with T174M counted along it

- Kd [1]: 62.5 nM
- Kd [2]: 284 nM
- Kd [3]: 40.4 nM
Compound: CCCCCC(=O)OC[C@H](COP(=O)(O)O[C@@H]1[C@H](O)[C@H](O)[C@@H](OP(=O)(O)O)[C@H](OP(=O)(O)O)[C@H]1O)OC(=O)CCCCC [PtdIns(4,5)P2]
